# Several values for one entry are separate records, joined by “and”; a condition that tells them apart may be missing. Equal values may be shown once.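 Each compound was tested at five concentrations against cells in 96-well plates for 48 hours. The concentration for 50% growth inhibition is given as GI50. The concentration for full growth arrest is given as TGI.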
# Tests used:
# Experiment in all cases: DTP human tumour cell line panel, 48 h
# ACHN renal = tested on: ACHN renal
# DU-145 prostate = tested on: DU-145 prostate
# HCT-15 colon = tested on: HCT-15 colon
# MCF7 breast = tested on: MCF7 breast
# MDA-MB-435 = tested on: MDA-MB-435
# RXF 393 renal = tested on: RXF 393 renal
# SF-295 CNS = tested on: SF-295 CNS
# SF-539 CNS = tested on: SF-539 CNS
# SK-MEL-2 melanoma = tested on: SK-MEL-2 melanoma
# SNB-19 CNS = tested on: SNB-19 CNS
SMILES,GI50 (ACHN renal),TGI (ACHN renal),GI50 (DU-145 prostate),TGI (DU-145 prostate),GI50 (HCT-15 colon),TGI (HCT-15 colon),GI50 (MCF7 breast),TGI (MCF7 breast),GI50 (MDA-MB-435),TGI (MDA-MB-435),GI50 (RXF 393 renal),TGI (RXF 393 renal),GI50 (SF-295 CNS),TGI (SF-295 CNS),GI50 (SF-539 CNS),TGI (SF-539 CNS),GI50 (SK-MEL-2 melanoma),TGI (SK-MEL-2 melanoma),GI50 (SNB-19 CNS),TGI (SNB-19 CNS)
CC(C)(C)OC(=O)NCCCCCCCCCCCCn1c2c(c3ccccc3c1=O)C(=O)c1ccccc1-2,21.1 µM,54.7 µM,91.6 µM,> 100 µM,> 100 µM,> 100 µM,> 100 µM,> 100 µM,> 100 µM,> 100 µM,17.8 µM,49.2 µM,17.5 µM,53 µM,20.6 µM,61.9 µM,18.1 µM,38.2 µM,32 µM,83.5 µM
CC(C)C(Br)C(=O)NCC(=O)O (configuration not stated),–,> 100 µM,–,> 100 µM,–,> 100 µM,–,> 100 µM,–,> 100 µM,–,> 100 µM,–,> 100 µM,–,> 100 µM,–,> 100 µM,–,> 100 µM
S=C(Nc1ccc(-c2nc3ccccc3s2)cc1)Nc1ccc(-c2nc3ccccc3s2)cc1,17.1 µM,41 µM,19.1 µM,62.5 µM,15.4 µM,35.7 µM,25 µM,59 µM,24.8 µM,73 µM,15.9 µM,50.4 µM,17.6 µM,> 100 µM,16.6 µM,42.4 µM,22.9 µM,45 µM,43 µM,> 100 µM
CN1C2C=CC(=O)C1C(C#N)C2 (configuration not stated),–,> 100 µM,–,> 100 µM,–,73.5 µM and > 100 µM,–,> 100 µM,–,> 100 µM,23.9 µM and 57.7 µM,64.3 µM and > 100 µM,–,> 100 µM,–,84 µM and > 100 µM,12.5 µM and 88.3 µM,32.1 µM and > 100 µM,–,> 100 µM
COc1ccc(C(=O)Cn2c(C(=O)c3ccc(Cl)cc3)nc(-c3ccccc3)c2-c2ccccc2)cc1,34.3 µM,> 100 µM,> 100 µM,> 100 µM,> 100 µM,> 100 µM,> 100 µM,> 100 µM,> 100 µM,> 100 µM,23.6 µM,> 100 µM,91 µM,> 100 µM,52.3 µM,> 100 µM,> 100 µM,> 100 µM,78.3 µM,> 100 µM
CN(C)CCN=c1nc2c(c(N)n1-c1ccccc1)c(=S)n(-c1ccccc1)c(=S)n2-c1ccccc1,2.89 µM,9.71 µM,4.91 µM,17.7 µM,1.17 µM,3.73 µM,1.9 µM,7.39 µM,1.75 µM,3.9 µM,2.62 µM,7.8 µM,2.31 µM,6.37 µM,1.68 µM,3.29 µM,1.73 µM,3.4 µM,3.86 µM,16.7 µM
CCOc1ccc2cc(-c3nn(CC4CCN(C)CC4)c4ncnc(N)c34)ccc2c1,14.7 µM,33 µM,28.4 µM,> 100 µM,12.3 µM,30.9 µM,13.4 µM,37.1 µM,12.2 µM,24.7 µM,4.12 µM,18.6 µM,14.5 µM,29.2 µM,14.1 µM,27.2 µM,17 µM,32.4 µM,15.6 µM,45.9 µM
Cc1nc(C(=O)OCc2ccccc2)cc(OCc2ccccc2)c1C,20.9 µM,60.2 µM,17 µM,41.4 µM,18.6 µM,> 60.6 µM,18.3 µM,43.2 µM,18.5 µM,> 54.6 µM,13.5 µM,28 µM,19.7 µM,46.8 µM,18.1 µM,35.2 µM,26.4 µM,> 84.5 µM,27.8 µM,> 82.8 µM
CCCCC[C@H]1C/C=C2/C(=O)C=C[C@@H]2C/C=C\CCCC(=O)O1,0.0987 µM,0.202 µM,0.169 µM,1.94 µM,0.0937 µM,0.26 µM,0.0884 µM,5.44 µM,0.169 µM,0.588 µM,0.0944 µM,0.223 µM,0.123 µM,0.298 µM,0.16 µM,0.67 µM,0.114 µM,0.296 µM,0.479 µM,7.45 µM
CCN(CC)c1ccc(/C=N/N=C(N)N)cc1,12.8 µM,64.8 µM,4.3 µM,28.2 µM,4.76 µM,55.8 µM,2.62 µM,14.8 µM,0.668 µM,3.04 µM,2.85 µM,11.7 µM,3.59 µM,15.8 µM,5.06 µM,30.5 µM,2.85 µM,8.33 µM,3.57 µM,23.8 µM
Fc1ccc(-c2ncn(C3CCNCC3)c2-c2ccnc(Oc3ccc(Cl)cc3)n2)cc1,4.19 µM,10.6 µM,6.37 µM,> 15.8 µM,4.24 µM,9.46 µM,3.93 µM,7.7 µM,4.04 µM,8.21 µM,2.56 µM,5.91 µM,4.39 µM,9.26 µM,4.2 µM,8.39 µM,4.45 µM,8.67 µM,6.57 µM,> 18.7 µM
C=C1C(=O)O[C@@H]2C[C@@H](C)[C@@H]3C=CC(=O)[C@@]3(C)[C@@H](OC(=O)CCCC(=O)O[C@H]3[C@@H]4C(=C)C(=O)O[C@@H]4C[C@@H](C)[C@@H]4C=CC(=O)[C@]43C)[C@H]12,–,0.11 µM,–,0.957 µM,–,0.112 µM,–,0.805 µM,–,0.0329 µM,–,0.047 µM,–,3.13 µM,–,0.185 µM,–,0.34 µM,–,2.56 µM
COc1ccc(C2=NNC(c3sc(Cl)nc3Cl)C2)cc1 (configuration not stated),4.58 µM,20.6 µM,7.38 µM,20.4 µM,3.78 µM,19.3 µM,3.28 µM,16.4 µM,3.25 µM,16.7 µM,18.4 µM,46.8 µM,25.1 µM,77.9 µM,4.58 µM,32 µM,5.47 µM,21 µM,20.8 µM,68.6 µM
CCNc1ccc2c(c1)C(=O)N(OS(C)(=O)=O)C2=O,–,> 100 µM,–,> 100 µM,–,> 100 µM,–,> 100 µM,–,> 100 µM,–,> 100 µM,–,> 100 µM,–,51.5 µM,–,> 100 µM,–,> 100 µM

# Source: PubChem BioAssay (NCI)
